We go through one compound from patent US20230038188A1 (priority 2021, published 2023).

What all share (format): biochemical
What all share (details): 1.5 mg/ml

The target of one test is T1, human thrombin (Homo sapiens, UniProt P00734).
T1 construct: 50 μl of 0.5 U thrombin (Sigma Co., USA); purchased Sigma Co., USA
As to the kind of experiment: Thrombin time (plasma clotting time with added thrombin). How it is done:
(§1) The blood clotting inhibitory activity (thrombus formation inhibitory activity) of each of the wasp extracts prepared in Example 1 was evaluated by measuring the thrombin time, the prothrombin time and the aPTT time in the same manner as a previously reported method (Sohn et al., 2004. Kor. J. Pharmacogn 35. 52-61; Kwon et al., 2004. J. Life Science, 14. 509-513; Ryu et al., 2010. J. Life Science, 20. 922-928). As plasma, control plasma (MD Pacific Technology Co., Ltd., Huayuan Industrial Area, China) was used. The thrombin time, the prothrombin time and the aPTT time were measured by the following methods.
50 μl of 0.5 U thrombin (Sigma Co., USA), 50 μl of 20 mM CaCl2) and 10 μl of each sample extract at various concentrations were mixed in a tube of Amelung coagulometer KC-1A (Japan) at 37° C. and allowed to react for 2 minutes, and then 100 μl of plasma was added thereto and the time taken for the plasma to clot was measured. As a control, aspirin (Sigma Co., USA) was used, and a solvent control, DMSO was used instead of the sample. […] The thrombin inhibitory effect was expressed as the average of three or more repeated experiments, and the thrombin inhibitory activity was expressed as the value obtained by dividing the clotting time after sample addition by the clotting time of the solvent control.

The test system of a further test is blood clotting factors. As to the kind of experiment: Activated partial thromboplastin time (aPTT). How it is done:
as §1
Activated Partial Thromboplastin Time (aPTT)
100 μl of plasma and 10 μl of each sample extract at various concentrations were added to a tube of Amelung coagulometer KC-1A (Japan) and warmed at 37° C. for 3 minutes, and then 50 μl of aPTT reagent (Sigma, ALEXIN™) was added thereto, followed by incubation at 37° C. for 3 minutes. Thereafter, 50 μl of CaCl2) (35 mM) was added thereto, and then the time taken for the plasma to clot was measured. […] The aPTT was expressed as the average of three repeated experiments, and the blood clotting inhibitory activity was expressed as the value obtained by dividing the aPTT after sample addition by the aPTT of the solvent control.

For a further test, the system named is prothrombin. The experiment in a line: Prothrombin time (plasma clotting time with PT reagent). As for the experimental part: as §1
70 μl of standard plasma (MD Pacific Co., China) and 10 μl of each sample extract at various concentrations were added to a tube of Amelung coagulometer KC-1A (Japan) and warmed at 37° C. for 3 minutes, and then 130 μl of PT reagent was added thereto. The time taken for the plasma to clot was expressed as the average of three repeated experiments. […] The prothrombin inhibitory activity was expressed as the value obtained by dividing the clotting time after sample addition by the clotting time of the solvent control.

“And” between values parts separate entries of the source, which are not always exact repeats. Equal values may be shown once.

For `CC(=O)Oc1ccccc1C(=O)O` [Aspirin], the “Thrombin time (blood clotting time after sample addition/blood clotting time after solvent addition)” value at human thrombin (Table 2) is 1.54 and 1.54 ± 0.11; on human thrombin (Table 4) it was 1.43 ± 0.04. Moreover, the “Blood clotting factor inhibition time (aPTT time) (sample/solvent)” value with blood clotting factors (Table 2) is 1.55 and 1.55 ± 0.07. In addition, the “Blood clotting factor inhibition time (aPT time) (sample/solvent)” value in the test with blood clotting factors (Table 4) amounted to 1.42 ± 0.03. The “Prothrombin time (blood clotting time after sample addition/blood clotting time after solvent addition)” value is 1.44 and 1.44 ± 0.04 in the test on prothrombin (Table 2); 1.73 ± 0.01 with prothrombin (Table 4).
